Measurements as given in PubChem BioAssay (NCI).
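Where inhibition never reached the appropriate level, the endpoint shown equals the highest concentration tested. Otherwise, values were interpolated linearly from a five-concentration, 48-hour dose response in 96-well plates. The concentration for 50% growth inhibition is given as GI50. TGI: concentration producing complete growth inhibition.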

Columns and labels:
Assay in all cases: NCI tumour cell line growth inhibition, 48 h
SK-MEL-28 melanoma = tested on: SK-MEL-28 melanoma
KM12 colon = tested on: KM12 colon
786-0 renal = tested on: 786-0 renal
EKVX NSCLC = tested on: EKVX NSCLC
SF-295 CNS = tested on: SF-295 CNS
HOP-62 NSCLC = tested on: HOP-62 NSCLC
UO-31 renal = tested on: UO-31 renal
SW-620 colon = tested on: SW-620 colon
SK-MEL-5 melanoma = tested on: SK-MEL-5 melanoma
MCF7 breast = tested on: MCF7 breast

Row | SMILES | TGI (SK-MEL-28 melanoma) [µM] | TGI (KM12 colon) [µM] | TGI (786-0 renal) [µM] | TGI (EKVX NSCLC) [µM] | TGI (SF-295 CNS) [µM] | TGI (HOP-62 NSCLC) [µM] | TGI (UO-31 renal) [µM] | TGI (SW-620 colon) [µM] | TGI (SK-MEL-5 melanoma) [µM] | TGI (MCF7 breast) [µM] | GI50 (SK-MEL-28 melanoma) [µM] | GI50 (KM12 colon) [µM] | GI50 (MCF7 breast) [µM] | GI50 (786-0 renal) [µM] | GI50 (SF-295 CNS) [µM] | GI50 (HOP-62 NSCLC) [µM] | GI50 (UO-31 renal) [µM] | GI50 (SW-620 colon) [µM] | GI50 (SK-MEL-5 melanoma) [µM] | GI50 (EKVX NSCLC) [µM]
1 | CC(=O)/C(=C\c1ccccc1O)C(=O)Nc1ccccc1C | 53.8 | 41.5 | 29.4 | 96.8 | 76.2 | 44.7 | 31 | 53.7 | 27.9 |  |  |  |  |  |  |  |  |  |  | 
2 | Clc1ccc(C2ON=C(c3ccccc3)N2C23CC4CC(CC(C4)C2)C3)cc1 (configuration not stated) | > 10 | > 10 | > 10 | > 10 | > 10 | > 10 |  | > 10 | > 10 | > 10 |  |  |  |  |  |  |  |  |  | 
3 | CC1=NN(c2ccccc2)C(=O)/C1=C\c1ccc([N+](=O)[O-])cc1 | > 100 | 64.3 | 85.8 | > 100 | 68.9 |  | > 100 | 93.2 | 54.5 |  |  |  |  |  |  |  |  |  |  | 
4 | COc1ccc(-c2cc(=O)c3c(O)cccc3o2)c(OC)c1OC | > 100 | > 100 | > 100 |  | > 100 | > 100 |  | > 100 | > 100 |  |  |  |  |  |  |  |  |  |  | 
5 | ClC1=C(Cl)C(Cl)(Cl)c2c3c(c4c(c21)C(Cl)(Cl)C(Cl)=C4Cl)C(Cl)(Cl)C(Cl)=C3Cl | > 100 | > 100 | > 100 | > 100 | > 100 | > 100 |  | > 100 | > 100 |  |  |  |  |  |  |  |  |  |  | 
6 | COc1ccc(/C=C(\C)[N+](=O)[O-])cc1OC | 3.44 | 16.4 | 3.57 |  | 32.3 | 16.4 | 3.2 | 3.8 | 5.11 | 3.25 | 1.71 | 4.49 | 1.35 | 1.93 | 17.8 | 5.08 | 1.68 | 1.78 | 2.19 | 
7 | CC(C)(C)c1cc2nc(c1)C(C(F)(F)F)(C(F)(F)F)OB(Br)OC2(C(F)(F)F)C(F)(F)F | 18.6 | 11.3 | 1.81 | 0.727 | 3.4 | 3.14 | 2.72 | 15.8 |  |  |  |  |  |  |  |  |  |  |  | 
8 | N[C@H](COCc1ccccc1)c1ccccc1 | > 100 | > 100 | > 80.9 | > 100 | 82.5 | > 74.5 | 87.4 | > 72.3 | 44.8 |  |  |  |  |  |  |  |  |  |  | 
9 | CCC(=O)Nc1ccc(N2C(=O)/C(=C/c3ccc(OC)cc3)N=C2c2ccccc2)cc1 | > 50 | > 50 | > 50 | > 50 | > 50 |  | > 50 | > 50 | > 50 | > 50 | 14.6 | 3.65 | 7.77 | 16.5 | 28 |  | 30 | 1.38 | 7.16 | 42.9
10 | c1ccc2c(c1)CCc1c-2n[nH]c1-c1[nH]nc2c1CCc1ccccc1-2 | > 100 | > 100 | > 100 | > 100 | > 100 | > 100 | > 100 | > 100 | > 100 |  |  |  |  |  |  |  |  |  |  | 
11 | CC1=C(C(=O)Nc2ccc(Cl)c(Cl)c2)C(c2ccc([N+](=O)[O-])cc2)C(C(=O)Nc2ccc(Cl)c(Cl)c2)=C(C)N1 | 9.93 | 3.63 | 11.1 | 15.4 | 9.24 | 8.7 | 10.6 | 12.4 | 3.39 |  |  |  |  |  |  |  |  |  |  | 
